# From patent US6150390A, “3-amino-1,2-benzoisoxazole derivatives, process for preparation, and use thereof” (Dong Wha Pharm. Ind. Co., Ltd., priority 1997, dated 2000)
# Like-named read-outs stand apart in the source and are kept apart here.
# Assays:
# [1] = molecular target: T1, LTB-4 receptor (Homo sapiens, UniProt Q15722); assay: Antagonizing action for LTB-4 receptor ([3H]-LTB-4 binding to human neutrophils); conditions: for inhibition at 0.01 µM: 10 nM, read-out: Degree of inhibition (%) 10 nM; for inhibition at 0.01 µM / inhibition at 0.1 µM / inhibition at 1 µM: inhibition of selective [3H]-LTB-4 binding, human neutrophils; for inhibition at 0.1 µM: 100 nM, read-out: Degree of inhibition (%) 100 nM; for inhibition at 1 µM: read-out: Degree of inhibition (%) 1 μM
# T1 construct: Final neutrophil was dispersed to 3×10^7 cell/ml in HBSS media and used for measuring the antagonizing action for LTB-4 receptor; endogenous in cells; host or cells: neutrophils from human whole blood
# Method: Neutrophil was separated from whole blood of human by precipitation using "Dextran T-500", and by the inclined centrifugation with Ficoll/Paque (Pharmacia Co.) Boyum, Scan. J. Clin. Lab. Invest., 21 suppl.
# Mixed erythrocyte was removed by hemolysis of hypotonic solution. Final neutrophil was dispersed to 3×10^7 cell/ml in HBSS media and used for measuring the antagonizing action for LTB-4 receptor.
# 0.5 nM of [^3 H]-LTB-4 (200 Ci/mmol), test sample to measure the antagonizing action for LTB-4 receptor, and cell dispersed in HBSS media was added to 12 mm×75 mm of polyethylene tube (final volume: 200 μl), and left in ice bath for 45 minutes.
# To separate [^3 H]-LTB-4 bound to neutrophil and isolated [^3 H]-LTB-4 not bound to neutrophil, the above mixture was filtered through GF/C filter (made by Wattman Co.). Filter paper was washed with pH 7.4 of cold Tris-buffer solution (5 ml) for 3 times, dried, and measured radioactivity. The selective binding of LTB-4 to neutrophil can be detected by the difference between radioactivities without antagonist in case that LTB-4 was totally bound to neutrophil, and that LTB-4 was bound to neutrophil in addition of radioisotope-unlabeled LTB-4 1000 times.
# [2] = reported in the literature; cited from earlier work
# [3] = system: cells of calvariae of fetal rat (bonelike nodule forming); assay: Bonelike nodule forming in cultured fetal rat calvaria cells; type: cell-based; conditions: for Area of nodule (mm^2): control 0.12 ± 0.026; for Number of nodule (No.): control 10.04 ± 1.23
# Method: Approximately 30 of calvariae of fetal rat, removed all the tissue, was dissolved in 5 ml sterilized colagenase (0.1%) and trypsin solution (0.05%) at 37° C. 20 Minutes after dissolving, the released cells were collected, and hereto was added fetal serum to the same amount. This procedure was carried out for 3-6 times in every 20 minutes to collect the isolated cells. Collected cells were separated by centrifugation ([…]) for 5 minutes and it was suspended in α-MEM media, containing 10% (v/v) fetal bovine serum. Collected cells were cultivated in petri dish for 2-3 days, then separated with trypsin, and it were placed in 96 wells to 2.0×10^3 cells/100 μl in each well.
# After cultivating the cells for 2-3 days, the media were changed to 5% fetal calf serum, 150 μg/ml ascorbic acid and 5 mM β-glycerophosphate, plus or minus sample (HS-1141). The control was in wells without the sample, and this time was arbitrarily set as […]. Formed nodule was analyzed with image analyzer (Biorad Co., U.S.A.); camcorder (SONY Co.); and microscope (Leitz Co.).
# T1 sequence (Q15722 whole entry): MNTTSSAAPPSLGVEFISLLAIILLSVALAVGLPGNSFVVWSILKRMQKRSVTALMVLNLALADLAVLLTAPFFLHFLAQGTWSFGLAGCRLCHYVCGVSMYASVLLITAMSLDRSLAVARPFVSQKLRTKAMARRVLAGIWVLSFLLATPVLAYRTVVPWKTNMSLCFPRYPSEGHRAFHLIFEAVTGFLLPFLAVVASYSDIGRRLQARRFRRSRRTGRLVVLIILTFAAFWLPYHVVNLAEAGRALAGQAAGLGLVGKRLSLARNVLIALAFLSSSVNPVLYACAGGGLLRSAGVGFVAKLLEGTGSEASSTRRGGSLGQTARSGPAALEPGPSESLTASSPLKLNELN
Compound,IC50 [1],inhibition at 0.01 µM [1],inhibition at 0.1 µM [1],inhibition at 1 µM [1],toxicity to stimulate stomach and intestine [2],Area of nodule (mm^2) ([3]; 10-11 M),Number of nodule (No.) ([3]; 10-11 M),Area of nodule (mm^2) ([3]; 10^-8 M),Number of nodule (No.) ([3]; 10^-8 M),Area of nodule (mm^2) ([3]; 10^-9 M),Number of nodule (No.) ([3]; 10^-9 M),Area of nodule (mm^2) ([3]; 10^-10 M),Number of nodule (No.) ([3]; 10^-10 M),"increase of remodeling of bonelike nodule ([3]; from Table II, versus control)",effect of antagonizing action for LTB-4 receptor compared with CGS-25019C ([1]; compared with known compound CGS-25019C),"IC50 ([1]; concentration of 50% of antagonizing in binding to receptor, read-out: IC50)"
"COc1cc(C(=O)N(C(C)C)C(C)C)ccc1OCCCCCOc1ccc(C(=N)N)cc1 [CGS-25019C, reference compound]",80 nM,11%,68%,97%,toxicity to stimulate stomach and intestine,–,–,–,–,–,–,–,–,–,–,–
"COc1cc(C(=O)N(C(C)C)C(C)C)ccc1OCCCCCOc1ccc2c(N)noc2c1 [HS-1132, N,N-diisopropyl-4-[5-(3-aminobenzo[d]isoxazol-6-yloxy)pentoxy]-3-methoxybenzamide]",–,< 10%,10%,90%,–,–,–,–,–,–,–,–,–,–,–,–
"COc1cc(C(=O)N(C(C)C)C(C)C)ccc1OCCCCOc1ccc2c(N)noc2c1 [HS-1141, N,N-diisopropyl-4-[4-(3-aminobenzo[d]isoxazol-6-yloxy)butoxy]-3-methoxybenzamide]",–,64%,95%,99%,–,0.342 ± 0.065 mm^2,25.67 ± 3.54 No.,0.273 ± 0.019 mm^2,22.80 ± 4.71 No.,0.379 ± 0.068 mm^2,24.00 ± 4.04 No.,0.320 ± 0.082 mm^2,19.40 ± 1.29 No.,> 2 times,better,7 nM
"COc1cc(C(=O)N(C(C)C)C(C)C)ccc1OCCCOc1ccc2c(N)noc2c1 [HS-1151, N,N-diisopropyl-4-[3-(3-aminobenzo[d]isoxazol-6-yloxy)propoxy]-3-methoxybenzamide]",–,< 10%,37%,92%,–,–,–,–,–,–,–,–,–,–,–,–
